Activity calls are given as the source filed them. The calls are words filed in the database; no cut-off is given here.
Tests used:
MV4-11 [1] = test: Cell cycle arrest in human MV4-11 cells assessed as accumulation at sub-G1 phase at 0.01 nM after 24 hrs by propidium iodide staining-based flow cytometric method (reference value: 9.2%); format: functional
MV4-11 [2] = test: Induction of apoptosis in human MV4-11 cells assessed as increase in PARP1 cleavage at 10 to 100 nM after 24 hrs by immunoblot method; format: functional, cell-based
Rattus norvegicus [3] = test: Toxicity in Wistar rat assessed as pathological macroscopic changes at 100 mg/kg, iv after 15 days; format: organism-based; conditions: in vivo, 360 h
in vitro [4] = conditions: mouse, BA/F3 cells
Rattus norvegicus [5] = test: Toxicity in Wistar rat assessed as clinical signs of intoxication at 200 mg/kg, po measured over 15 days; format: organism-based; conditions: in vivo, 360 h
[6] = tested on: Receptor-type tyrosine-protein kinase FLT3 (Homo sapiens), P36888 [UNDEFINED MUTATION]; conditions: MV4-11, at 0.01 to 100 nM
Description: Inhibition of FLT3 ITD mutant in human MV4-11 cells assessed as decrease in STAT5 phosphorylation at Y694 at 0.01 to 100 nM after 1 hr by immunoblot analysis

MV4-11 [7] = test: Cell cycle arrest in human MV4-11 cells assessed as accumulation at G1 phase at 10 nM after 24 hrs by propidium iodide staining-based flow cytometric method (reference value: 56%); format: functional
MOLM-13 = test: cells; conditions: Homo sapiens, MOLM-13, 72 h
[8] = target: T1, Receptor-type tyrosine-protein kinase FLT3 (Homo sapiens, UniProt P36888); test: biochemical; format: cell-based, Sf9
T1 sequence (P36888 whole entry): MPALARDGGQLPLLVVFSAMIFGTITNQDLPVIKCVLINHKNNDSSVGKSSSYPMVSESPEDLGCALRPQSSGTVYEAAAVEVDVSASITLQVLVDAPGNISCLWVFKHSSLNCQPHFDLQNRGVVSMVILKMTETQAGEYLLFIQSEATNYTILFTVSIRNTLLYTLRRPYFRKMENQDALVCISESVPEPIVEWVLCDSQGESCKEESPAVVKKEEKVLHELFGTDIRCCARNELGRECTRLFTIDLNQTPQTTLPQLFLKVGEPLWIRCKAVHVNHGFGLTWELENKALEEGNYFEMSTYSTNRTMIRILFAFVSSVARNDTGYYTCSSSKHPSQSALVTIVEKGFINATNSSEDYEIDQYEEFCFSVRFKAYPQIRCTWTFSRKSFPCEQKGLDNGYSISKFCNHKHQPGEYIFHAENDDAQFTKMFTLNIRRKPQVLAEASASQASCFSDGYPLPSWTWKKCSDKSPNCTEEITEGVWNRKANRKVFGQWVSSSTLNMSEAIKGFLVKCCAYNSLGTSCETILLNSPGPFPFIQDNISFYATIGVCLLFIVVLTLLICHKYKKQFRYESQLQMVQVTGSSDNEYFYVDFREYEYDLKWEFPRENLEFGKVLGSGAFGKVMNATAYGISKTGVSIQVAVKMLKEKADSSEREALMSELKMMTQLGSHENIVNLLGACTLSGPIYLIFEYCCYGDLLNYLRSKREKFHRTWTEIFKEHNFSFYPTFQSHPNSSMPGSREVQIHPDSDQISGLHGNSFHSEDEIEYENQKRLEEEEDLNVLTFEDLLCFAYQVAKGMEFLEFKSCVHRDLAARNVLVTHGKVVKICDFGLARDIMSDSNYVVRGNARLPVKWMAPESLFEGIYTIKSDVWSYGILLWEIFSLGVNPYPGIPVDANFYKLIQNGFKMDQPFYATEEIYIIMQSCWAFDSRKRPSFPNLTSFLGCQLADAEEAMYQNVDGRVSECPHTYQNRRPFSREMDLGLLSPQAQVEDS
Description: Inhibition of N-terminal GST/His6-fused recombinant wild type human FLT3 (R571 to S993 residues) expressed in Sf9 insect cells using poly (Ala,Glu,Lys,Tyr) 6:2:5:1 hydrobromide as substrate in presence of [gamma-33P]ATP

MV4-11 [9] = test: Induction of apoptosis in human MV4-11 cells assessed as increase in caspase-3/7 activity using Ac-DEVD-AMC substrate after 24 hrs by fluorescence assay; format: functional, cell-based
MV4-11 [10] = test: Cell cycle arrest in human MV4-11 cells assessed as accumulation at G2/M phase at 0.01 nM after 24 hrs by propidium iodide staining-based flow cytometric method (reference value: 15.9%); format: functional
Rattus norvegicus [11] = test: Toxicity in Wistar rat assessed as mortality at 100 mg/kg, iv measured over 15 days; format: organism-based; conditions: in vivo, 360 h
[12] = target: Macrophage colony-stimulating factor 1 receptor (Homo sapiens) (UniProt P07333); conditions: 10 nM
Sequence of Macrophage colony-stimulating factor 1 receptor (Homo sapiens) (P07333 whole entry): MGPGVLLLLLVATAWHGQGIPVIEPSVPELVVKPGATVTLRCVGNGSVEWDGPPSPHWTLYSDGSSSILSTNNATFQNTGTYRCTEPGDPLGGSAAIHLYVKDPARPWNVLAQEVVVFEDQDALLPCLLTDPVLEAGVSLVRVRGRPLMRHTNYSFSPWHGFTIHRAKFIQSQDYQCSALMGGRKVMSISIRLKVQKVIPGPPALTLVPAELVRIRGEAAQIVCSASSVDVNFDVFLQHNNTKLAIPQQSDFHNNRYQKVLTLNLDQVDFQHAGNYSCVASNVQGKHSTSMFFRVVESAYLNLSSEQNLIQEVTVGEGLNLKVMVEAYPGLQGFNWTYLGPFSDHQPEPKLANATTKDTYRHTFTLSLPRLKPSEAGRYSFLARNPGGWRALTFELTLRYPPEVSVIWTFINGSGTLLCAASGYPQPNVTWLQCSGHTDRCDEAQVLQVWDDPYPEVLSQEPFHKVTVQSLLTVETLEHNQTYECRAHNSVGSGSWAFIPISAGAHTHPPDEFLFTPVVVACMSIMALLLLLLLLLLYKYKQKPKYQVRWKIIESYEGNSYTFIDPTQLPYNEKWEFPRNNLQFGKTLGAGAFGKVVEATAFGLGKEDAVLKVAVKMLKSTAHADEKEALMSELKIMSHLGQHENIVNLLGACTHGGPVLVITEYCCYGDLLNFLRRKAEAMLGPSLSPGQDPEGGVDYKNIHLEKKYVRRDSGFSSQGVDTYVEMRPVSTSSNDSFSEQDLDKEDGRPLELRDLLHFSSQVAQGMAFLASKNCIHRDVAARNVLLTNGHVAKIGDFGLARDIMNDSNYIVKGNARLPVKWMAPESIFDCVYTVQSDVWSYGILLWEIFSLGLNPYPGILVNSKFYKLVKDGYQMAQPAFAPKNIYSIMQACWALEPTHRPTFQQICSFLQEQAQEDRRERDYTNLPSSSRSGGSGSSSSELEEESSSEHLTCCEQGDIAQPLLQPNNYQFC
Description: Inhibition of human N-terminal GST-tagged FMS expressed in baculovirus expression system at 10 nM relative to control

MV4-11 [13] = test: Induction of apoptosis in human MV4-11 cells assessed as decrease in Mcl-1 levels at 10 to 100 nM after 24 hrs by immunoblot method; format: functional, cell-based
MV4-11 [14] = test: Cell cycle arrest in human MV4-11 cells assessed as accumulation at G1 phase at 1 nM after 24 hrs by propidium iodide staining-based flow cytometric method (reference value: 56%); format: functional
[15] = target: Calcium/calmodulin-dependent protein kinase type II subunit delta (Homo sapiens) (UniProt Q13557); conditions: 10 nM
Sequence of Calcium/calmodulin-dependent protein kinase type II subunit delta (Homo sapiens) (Q13557 whole entry): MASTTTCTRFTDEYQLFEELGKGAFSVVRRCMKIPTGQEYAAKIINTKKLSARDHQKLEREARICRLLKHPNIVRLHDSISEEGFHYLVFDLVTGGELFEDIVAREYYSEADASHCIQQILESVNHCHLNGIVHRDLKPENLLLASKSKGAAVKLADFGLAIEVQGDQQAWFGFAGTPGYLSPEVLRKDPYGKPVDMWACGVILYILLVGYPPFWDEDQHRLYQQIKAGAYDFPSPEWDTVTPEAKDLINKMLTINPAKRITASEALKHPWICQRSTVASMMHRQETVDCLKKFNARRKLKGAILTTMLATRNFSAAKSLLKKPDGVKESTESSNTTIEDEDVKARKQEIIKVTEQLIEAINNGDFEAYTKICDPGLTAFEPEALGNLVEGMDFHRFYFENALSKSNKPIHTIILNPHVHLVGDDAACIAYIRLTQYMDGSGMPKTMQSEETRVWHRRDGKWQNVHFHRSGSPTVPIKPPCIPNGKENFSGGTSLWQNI
Description: Inhibition of full length human N-terminal GST-tagged CaMK2delta expressed in baculovirus expression system at 10 nM relative to control

THP-1 = test: cells; conditions: Homo sapiens, THP-1, 72 h
[16] = tested on: Receptor-type tyrosine-protein kinase FLT3 (Homo sapiens), P36888 [UNDEFINED MUTATION]; conditions: MV4-11, at 0.01 to 100 nM; remark: listed apart in the source
Description: Inhibition of FLT3 ITD mutant in human MV4-11 cells assessed as decrease in ERK1/2 phosphorylation at T202/Y204 at 0.01 to 100 nM after 1 hr by immunoblot analysis

[17] = tested on: Receptor-type tyrosine-protein kinase FLT3 (Homo sapiens), P36888 [UNDEFINED MUTATION]; conditions: MV4-11, at 1 nM
Description: Inhibition of FLT3 ITD mutant autophosphorylation at Y589/591 in human MV4-11 cells at 1 nM after 1 hr by immunoblot analysis

[18] = target: Receptor-type tyrosine-protein kinase FLT3 (Homo sapiens, UniProt P36888, ITD); test: biochemical; format: cell-based, Sf9
Description: Inhibition of N-terminal GST/His6-fused recombinant human FLT3 (R571 to S993 residues) ITD mutant expressed in Sf9 insect cells using poly (Ala,Glu,Lys,Tyr) 6:2:5:1 hydrobromide as substrate in presence of [gamma-33P]ATP

Rattus norvegicus [19] = test: Toxicity in Wistar rat assessed as pathological macroscopic changes at 200 mg/kg, po after 15 days; format: organism-based; conditions: in vivo, 360 h
Kasumi 1 = test: cells; conditions: Homo sapiens, Kasumi 1, 72 h
MV4-11 [20] = test: Cell cycle arrest in human MV4-11 cells assessed as accumulation at S phase at 100 nM after 24 hrs by propidium iodide staining-based flow cytometric method (reference value: 28.1%); format: functional
MV4-11 [21] = test: Cell cycle arrest in human MV4-11 cells assessed as accumulation at sub-G1 phase at 1 nM after 24 hrs by propidium iodide staining-based flow cytometric method (reference value: 9.2%); format: functional
[22] = target: Platelet-derived growth factor receptor beta (Homo sapiens) (UniProt P09619); conditions: 10 nM
Sequence of Platelet-derived growth factor receptor beta (Homo sapiens) (P09619 whole entry): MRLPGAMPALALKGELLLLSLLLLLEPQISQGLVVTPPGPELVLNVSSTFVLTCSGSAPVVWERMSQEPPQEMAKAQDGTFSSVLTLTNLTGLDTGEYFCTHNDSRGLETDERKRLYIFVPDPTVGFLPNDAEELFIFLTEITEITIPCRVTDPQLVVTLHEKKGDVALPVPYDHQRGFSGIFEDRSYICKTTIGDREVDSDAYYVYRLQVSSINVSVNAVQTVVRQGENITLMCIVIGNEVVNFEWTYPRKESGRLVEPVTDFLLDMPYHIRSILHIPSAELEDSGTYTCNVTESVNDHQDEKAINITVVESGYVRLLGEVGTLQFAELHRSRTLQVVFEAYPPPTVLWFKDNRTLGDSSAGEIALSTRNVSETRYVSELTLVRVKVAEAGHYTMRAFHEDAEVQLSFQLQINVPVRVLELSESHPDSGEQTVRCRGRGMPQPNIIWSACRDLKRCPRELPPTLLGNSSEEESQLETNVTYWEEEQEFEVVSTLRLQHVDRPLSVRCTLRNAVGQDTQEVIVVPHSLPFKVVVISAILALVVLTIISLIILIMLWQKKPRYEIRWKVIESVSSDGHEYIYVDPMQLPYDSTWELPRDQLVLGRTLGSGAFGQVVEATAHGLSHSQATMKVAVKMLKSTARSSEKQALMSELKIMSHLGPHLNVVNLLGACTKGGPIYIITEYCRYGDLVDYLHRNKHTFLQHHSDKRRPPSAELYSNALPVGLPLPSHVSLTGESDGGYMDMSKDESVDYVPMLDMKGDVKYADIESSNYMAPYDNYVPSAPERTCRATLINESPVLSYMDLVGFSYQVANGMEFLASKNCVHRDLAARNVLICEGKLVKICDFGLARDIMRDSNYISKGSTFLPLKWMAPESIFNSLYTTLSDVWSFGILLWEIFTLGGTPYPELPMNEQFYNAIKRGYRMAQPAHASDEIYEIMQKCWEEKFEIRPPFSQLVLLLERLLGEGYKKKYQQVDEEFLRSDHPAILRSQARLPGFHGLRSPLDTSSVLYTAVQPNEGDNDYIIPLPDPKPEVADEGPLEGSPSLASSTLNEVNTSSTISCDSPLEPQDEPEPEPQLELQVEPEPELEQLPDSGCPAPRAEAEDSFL
Description: Inhibition of human N-terminal GST-tagged PDGFRbeta cytoplasmic domain expressed in baculovirus expression system at 10 nM relative to control

[23] = tested on: Mast/stem cell growth factor receptor Kit (Homo sapiens), P10721 [D816V]; conditions: 10 nM
Sequence of Mast/stem cell growth factor receptor Kit (Homo sapiens), P10721 [D816V] (P10721 whole entry D816V): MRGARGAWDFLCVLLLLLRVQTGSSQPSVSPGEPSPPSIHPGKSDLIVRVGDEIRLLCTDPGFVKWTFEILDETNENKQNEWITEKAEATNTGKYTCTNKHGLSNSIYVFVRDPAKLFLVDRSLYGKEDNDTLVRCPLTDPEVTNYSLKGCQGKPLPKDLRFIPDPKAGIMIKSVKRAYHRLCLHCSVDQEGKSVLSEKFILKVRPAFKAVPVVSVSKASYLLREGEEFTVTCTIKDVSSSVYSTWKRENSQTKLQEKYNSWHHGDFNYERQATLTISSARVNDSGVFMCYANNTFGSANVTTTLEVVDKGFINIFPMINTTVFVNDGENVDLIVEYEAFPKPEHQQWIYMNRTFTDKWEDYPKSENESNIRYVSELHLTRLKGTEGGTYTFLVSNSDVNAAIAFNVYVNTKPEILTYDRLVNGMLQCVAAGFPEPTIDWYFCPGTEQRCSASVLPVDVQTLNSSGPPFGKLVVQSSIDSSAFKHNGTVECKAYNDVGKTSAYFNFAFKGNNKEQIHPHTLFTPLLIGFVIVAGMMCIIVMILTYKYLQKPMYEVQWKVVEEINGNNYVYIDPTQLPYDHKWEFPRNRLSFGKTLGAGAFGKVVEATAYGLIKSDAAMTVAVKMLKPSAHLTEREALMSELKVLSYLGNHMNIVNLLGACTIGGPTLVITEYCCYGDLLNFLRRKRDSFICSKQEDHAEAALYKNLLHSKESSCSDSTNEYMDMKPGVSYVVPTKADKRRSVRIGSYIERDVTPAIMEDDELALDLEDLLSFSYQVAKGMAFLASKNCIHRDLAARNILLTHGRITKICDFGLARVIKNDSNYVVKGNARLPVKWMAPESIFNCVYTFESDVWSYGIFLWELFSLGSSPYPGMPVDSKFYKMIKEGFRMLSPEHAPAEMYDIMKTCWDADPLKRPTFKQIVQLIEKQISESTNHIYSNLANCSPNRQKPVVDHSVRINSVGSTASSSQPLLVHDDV
Description: Inhibition of human N-terminal GST-tagged KIT D816V mutant cytoplasmic domain expressed in baculovirus expression system at 10 nM relative to control

MV4-11 [24] = test: Cell cycle arrest in human MV4-11 cells assessed as accumulation at G2/M phase at 0.1 nM after 24 hrs by propidium iodide staining-based flow cytometric method (reference value: 15.9%); format: functional
in vitro [25] = conditions: human, MRC5 cells

For `N[C@H]1CC[C@H](Nc2nc(Nc3ccc(CN4CCOCC4)cc3)c3ncn(C4CCCC4)c3n2)CC1`, the Activity (MV4-11 [1]) was 9.9%, the Activity (MV4-11 [2]) was “Active” and the Activity (Rattus norvegicus [3]) was “Non-Toxic”. For the same molecule, the GI50 at 72 h (in vitro [4]) was 1140 nM, the Activity (Rattus norvegicus [5]) was “Non-Toxic” and the inhibition [6] was “Active”. It also gave an Activity (MV4-11 [7]) of 96.5%, a GI50 (MOLM-13) of 1 nM and an IC50 [8] of 13 nM. For the same molecule, the Activity (MV4-11 [9]) was “Active”, the Activity (MV4-11 [10]) was 14.5% and the Activity (Rattus norvegicus [11]) was “Non-Toxic”. The inhibition [12] was greater than 90%, the Activity (MV4-11 [13]) was “Active” and the Activity (MV4-11 [14]) was 90.3%. For the same molecule, the inhibition [15] was greater than 90%, the GI50 (THP-1) was 713 nM and the inhibition [16] was “Active”. The inhibition [17] was “Active”, the IC50 [18] was 3 nM and the Activity (Rattus norvegicus [19]) was “Non-Toxic”. The GI50 (Kasumi 1) was 513 nM, the Activity (MV4-11 [20]) was 3.8% and the Activity (MV4-11 [21]) was 20.4%. The inhibition [22] was greater than 90%, the inhibition [23] was greater than 90% and the Activity (MV4-11 [24]) was 12.3%. For the same molecule, the GI50 at 72 h (in vitro [25]) was 20600 nM.

From ChEMBL document CHEMBL4177767, “Discovery of N2-(4-Amino-cyclohexyl)-9-cyclopentyl- N6-(4-morpholin-4-ylmethyl-phenyl)- 9H-purine-2,6-diamine as a Potent FLT3 Kinase Inhibitor for Acute Myeloid Leukemia with FLT3 Mutations” (J Med Chem, 2018)
